Test results: PubChem BioAssay AID256 (DTP/NCI, 2004)
“And” between values parts separate entries of the source, which are not always exact repeats. Identical values can stand only once. Inconclusive results and toxic doses are left out. How the source made its calls: active means survival T/C of 150% or more; inactive means T/C below 125% in these data.

Test system: CD2F1 mice, L1210 leukemia ip, survival T/C
Assay: NCI In Vivo Anticancer Drug Screen. Data for tumor model L1210 Leukemia (intraperitoneal) in CD2F1 (CDF1) mice
Conditions: higher = longer survival
Summary of the method: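 Implant tumor; dose compound or vehicle; measure endpoint in both groups; report treated divided by control.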

[1] = endpoint: mean survival time, dose: 100.0 mg/kg/injection, schedule: Q04DX003 (ip), vehicle: Klucel (hydroxypropylcellulose) (HPC)
[2] = endpoint: mean survival time, dose: 200.0 mg/kg/injection, schedule: Q04DX003 (ip), vehicle: Klucel (hydroxypropylcellulose) (HPC)
[3] = endpoint: mean survival time, dose: 400.0 mg/kg/injection, schedule: Q04DX003 (ip), vehicle: Klucel (hydroxypropylcellulose) (HPC)
[4] = endpoint: mean survival time, dose: 100.0 mg/kg/injection, schedule: Q04DX003 (ip), vehicle: saline with Tween-80
[5] = endpoint: mean survival time, dose: 200.0 mg/kg/injection, schedule: Q04DX003 (ip), vehicle: saline with Tween-80
[6] = endpoint: mean survival time, dose: 400.0 mg/kg/injection, schedule: Q04DX003 (ip), vehicle: saline with Tween-80
[7] = endpoint: mean survival time, dose: 100.0 mg/kg/injection, schedule: Q01DX001 (ip), vehicle: saline
[8] = endpoint: mean survival time, dose: 100.0 mg/kg/injection, schedule: Q04DX003 (ip), vehicle: saline
[9] = endpoint: mean survival time, dose: 200.0 mg/kg/injection, schedule: Q01DX001 (ip), vehicle: saline
[10] = endpoint: mean survival time, dose: 200.0 mg/kg/injection, schedule: Q04DX003 (ip), vehicle: saline
[11] = endpoint: mean survival time, dose: 400.0 mg/kg/injection, schedule: Q01DX001 (ip), vehicle: saline
[12] = endpoint: mean survival time, dose: 100.0 mg/kg/injection, schedule: Q01DX009 (ip), vehicle: saline with Tween-80
[13] = endpoint: mean survival time, dose: 200.0 mg/kg/injection, schedule: Q01DX009 (ip), vehicle: saline with Tween-80
[14] = endpoint: mean survival time, dose: 2.0 mg/kg/injection, schedule: Q01DX009 (ip), vehicle: saline + alcohol
[15] = endpoint: mean survival time, dose: 4.0 mg/kg/injection, schedule: Q01DX009 (ip), vehicle: saline + alcohol
[16] = endpoint: mean survival time, dose: 25.0 mg/kg/injection, schedule: Q01DX009 (ip), vehicle: saline with Tween-80
[17] = endpoint: mean survival time, dose: 50.0 mg/kg/injection, schedule: Q01DX009 (ip), vehicle: saline with Tween-80
[18] = endpoint: mean survival time, dose: 400.0 mg/kg/injection, schedule: Q01DX009 (ip), vehicle: saline with Tween-80
[19] = endpoint: mean survival time, dose: 100.0 mg/kg/injection, schedule: Q01DX009 (ip), vehicle: Klucel (hydroxypropylcellulose) (HPC)
[20] = endpoint: mean survival time, dose: 200.0 mg/kg/injection, schedule: Q01DX009 (ip), vehicle: Klucel (hydroxypropylcellulose) (HPC)

Measured: T/C

CO/N=C(/c1ccccc1)c1cccc[n+]1C
inactive: endpoint: mean survival time, dose: 9.4 mg/kg/injection, schedule: Q01DX009 (ip), vehicle: saline 107 % of control | endpoint: mean survival time, dose: 18.8 mg/kg/injection, schedule: Q01DX009 (ip), vehicle: saline 97 % of control | endpoint: mean survival time, dose: 37.5 mg/kg/injection, schedule: Q01DX009 (ip), vehicle: saline 98 % of control | endpoint: mean survival time, dose: 75.0 mg/kg/injection, schedule: Q01DX001 (ip), vehicle: saline 97 % of control

O=C(Nc1ccccn1)C(O)C(O)C(O)C(O)CO (stereo not given)
inactive: endpoint: mean survival time, dose: 12.5 mg/kg/injection, schedule: Q04DX003 (ip), vehicle: saline with Tween-80 96 % of control | endpoint: mean survival time, dose: 25.0 mg/kg/injection, schedule: Q04DX003 (ip), vehicle: saline with Tween-80 101 % of control | endpoint: mean survival time, dose: 50.0 mg/kg/injection, schedule: Q04DX003 (ip), vehicle: saline with Tween-80 89 % of control

ClC(Cl)(Cl)c1nc(C(Cl)(Cl)Cl)nc(C(Cl)(Cl)Cl)n1
inactive: [1] 97 % of control | [2] 87 % of control | [3] 91 % of control

NNC(=O)c1ccc(-c2ccccc2)cc1
inactive: endpoint: mean survival time, dose: 1.56 mg/kg/injection, schedule: Q01DX009 (ip), vehicle: Klucel (hydroxypropylcellulose) (HPC) 100 % of control | endpoint: mean survival time, dose: 3.13 mg/kg/injection, schedule: Q01DX009 (ip), vehicle: Klucel (hydroxypropylcellulose) (HPC) 98 % of control | endpoint: mean survival time, dose: 6.25 mg/kg/injection, schedule: Q01DX009 (ip), vehicle: Klucel (hydroxypropylcellulose) (HPC) 96 % of control | endpoint: mean survival time, dose: 12.5 mg/kg/injection, schedule: Q01DX009 (ip), vehicle: Klucel (hydroxypropylcellulose) (HPC) 102 % of control | endpoint: mean survival time, dose: 25.0 mg/kg/injection, schedule: Q01DX009 (ip), vehicle: Klucel (hydroxypropylcellulose) (HPC) 94 % of control | endpoint: mean survival time, dose: 25.0 mg/kg/injection, schedule: Q01DX009 (ip), vehicle: water 108 % of control | endpoint: mean survival time, dose: 50.0 mg/kg/injection, schedule: Q01DX009 (ip), vehicle: water 102 % of control | endpoint: mean survival time, dose: 100.0 mg/kg/injection, schedule: Q01DX009 (ip), vehicle: water 100 % of control

Cc1ccc2c(c1)C(c1ccccc1)(c1ccccc1)OC2=O
inactive: [4] 98 % of control | [5] 91 % of control | [6] 95 % of control

CC1OC(OC(=O)c2ccc([N+](=O)[O-])cc2)CC(NC(=O)C(F)(F)F)C1OC(=O)c1ccc([N+](=O)[O-])cc1 (stereo not given)
inactive: endpoint: mean survival time, dose: 25.0 mg/kg/injection, schedule: Q01DX005 (ip), vehicle: Klucel (hydroxypropylcellulose) (HPC) 94 % of control | endpoint: mean survival time, dose: 50.0 mg/kg/injection, schedule: Q01DX005 (ip), vehicle: Klucel (hydroxypropylcellulose) (HPC) 89 % of control

O=S(=O)(c1ccccc1)c1cccs1
inactive: endpoint: mean survival time, dose: 50.0 mg/kg/injection, schedule: Q04DX003 (ip), vehicle: saline 93 % of control | [7] 110 % of control | [8] 98 % of control | [9] 112 % of control | [10] 95 % of control | [11] 112 % of control

Cc1ccc(NC(=O)c2ccccc2)c(C)c1
inactive: [12] 90 % of control | [4] 92 % of control | [13] 86 % of control | [5] 92 % of control | [6] 92 % of control

COC(=O)C12OCC34C(CC5C(C)=CC(=O)C(O)C5(C)C3C(O)C1O)OC(=O)C(OC(=O)CC(C)C)C24 (stereo not given)
inactive: endpoint: mean survival time, dose: 0.12 mg/kg/injection, schedule: Q01DX009 (ip), vehicle: saline + alcohol 101 % of control | endpoint: mean survival time, dose: 0.13 mg/kg/injection, schedule: Q01DX009 (ip), vehicle: saline + alcohol 102 % of control | endpoint: mean survival time, dose: 0.25 mg/kg/injection, schedule: Q01DX009 (ip), vehicle: saline + alcohol 100 % of control and 102 % of control | endpoint: mean survival time, dose: 0.5 mg/kg/injection, schedule: Q01DX009 (ip), vehicle: saline + alcohol 113 % of control and 95 % of control | endpoint: mean survival time, dose: 1.0 mg/kg/injection, schedule: Q01DX009 (ip), vehicle: saline + alcohol 101 % of control and 105 % of control | [14] 97 % of control and 104 % of control | [15] 104 % of control and 109 % of control

CN(C)N=Nc1c(F)cc(F)cc1F
inactive: [16] 98 % of control | [17] 102 % of control | [13] 90 % of control

Nc1nc(OCc2ccccc2)ncc1C(=O)NC(CO)C(=O)O (stereo not given)
inactive: endpoint: mean survival time, dose: 6.25 mg/kg/injection, schedule: Q01DX009 (ip), vehicle: saline with Tween-80 100 % of control | endpoint: mean survival time, dose: 12.5 mg/kg/injection, schedule: Q01DX009 (ip), vehicle: saline with Tween-80 98 % of control | [16] 102 % of control

Cc1ccc(S(=O)(=O)NC(Cc2ccccc2)C(=O)CCl)cc1 (stereo not given)
inactive: [17] 92 % of control | [12] 96 % of control | [13] 90 % of control

CCN(CC)CCC(CN(C)C)C(C)=O (stereo not given)
inactive: endpoint: mean survival time, dose: 75.0 mg/kg/injection, schedule: Q01DX001 (ip), vehicle: other 106 % of control | endpoint: mean survival time, dose: 150.0 mg/kg/injection, schedule: Q01DX001 (ip), vehicle: other 103 % of control | endpoint: mean survival time, dose: 300.0 mg/kg/injection, schedule: Q01DX001 (ip), vehicle: other 96 % of control

Cc1nc(N)c2ncn(C3OC(CO)C(O)C3O)c2n1 (stereo not given)
inactive: endpoint: mean survival time, dose: 100.0 mg/kg/injection, schedule: Q04DX002 (ip), vehicle: saline with Tween-80 115 % of control

NC/C(=N\O)c1ccc(-c2ccccc2)cc1
inactive: endpoint: mean survival time, dose: 100.0 mg/kg/injection, schedule: Q01DX001 (ip), vehicle: Klucel (hydroxypropylcellulose) (HPC) 91 % of control | endpoint: mean survival time, dose: 200.0 mg/kg/injection, schedule: Q01DX001 (ip), vehicle: Klucel (hydroxypropylcellulose) (HPC) 91 % of control | endpoint: mean survival time, dose: 400.0 mg/kg/injection, schedule: Q01DX001 (ip), vehicle: Klucel (hydroxypropylcellulose) (HPC) 91 % of control

NCCCOS(=O)(=O)O
inactive: [12] 96 % of control | [8] 98 % of control | [13] 97 % of control | [10] 101 % of control | [18] 100 % of control | endpoint: mean survival time, dose: 400.0 mg/kg/injection, schedule: Q04DX003 (ip), vehicle: saline 95 % of control

COC(=O)C1C2(C)CCc3cc(OC)ccc3C2=CC(=O)C1(C)C(=O)OC (stereo not given)
inactive: endpoint: mean survival time, dose: 100.0 mg/kg/injection, schedule: Q04DX003 (sc), vehicle: steriod suspending solution 97 % of control | endpoint: mean survival time, dose: 200.0 mg/kg/injection, schedule: Q04DX003 (sc), vehicle: steriod suspending solution 103 % of control | endpoint: mean survival time, dose: 400.0 mg/kg/injection, schedule: Q04DX003 (sc), vehicle: steriod suspending solution 98 % of control

CC/C=C(\C)C=O
inactive: [7] 100 % of control | [9] 97 % of control | [11] 97 % of control

CCc1ncc(C(C)(O)c2ccc(C)cc2)n1Cc1ccccc1 (stereo not given)
inactive: [12] 92 % of control | [13] 90 % of control | [18] 97 % of control

CCCSc1ncnc2nc[nH]c12
inactive: endpoint: median survival time, dose: 31.25 mg/kg/injection, schedule: Q01DX009 (ip), vehicle: saline 100 % of control | endpoint: median survival time, dose: 62.5 mg/kg/injection, schedule: Q01DX009 (ip), vehicle: saline 114 % of control and 111 % of control | endpoint: median survival time, dose: 125.0 mg/kg/injection, schedule: Q01DX009 (ip), vehicle: saline 121 % of control and 111 % of control | endpoint: median survival time, dose: 250.0 mg/kg/injection, schedule: Q01DX009 (ip), vehicle: saline 122 % of control

CCOC(=O)C(C(=O)OCC)C(C)C
inactive: [7] 97 % of control | [9] 97 % of control | [11] 110 % of control

CCC(C)C(=O)O[C@H]1C(=O)O[C@@H]2C[C@H]3C(C)=CC(=O)[C@@H](O)[C@]3(C)[C@H]3[C@@H](O)[C@H](O)[C@@]4(C)OC[C@]32[C@@H]14 (stereo not given in full)
inactive: [14] 104 % of control | [15] 102 % of control

O=C(O)/C=C\c1ccc(OC(=O)c2ccccc2)cc1
inactive: endpoint: mean survival time, dose: 50.0 mg/kg/injection, schedule: Q01DX009 (ip), vehicle: Klucel (hydroxypropylcellulose) (HPC) 96 % of control | [19] 93 % of control | [20] 93 % of control

CCOC(=O)c1ccc(NC(=O)c2ccc(OCCOc3ccc(C(C)(C)CC(C)(C)C)cc3)c(NC(=O)CC(=O)c3cccc([N+](=O)[O-])c3)c2)cc1
inactive: [19] 92 % of control | [1] 111 % of control | [20] 92 % of control | [2] 100 % of control | endpoint: mean survival time, dose: 400.0 mg/kg/injection, schedule: Q01DX009 (ip), vehicle: Klucel (hydroxypropylcellulose) (HPC) 103 % of control | [3] 102 % of control
